Experimental data taken from US11590116B2 (THERAVANCE BIOPHARMA R&D IP, LLC, priority 2019, dated 2023).

Experiments:
[1] = system: TGF-β-stimulated SMAD3 phosphorylation in BEAS-2B cells; assay: Cellular ALK5 potency assay, inhibition of TGF-β stimulated pSMAD3 formation in BEAS-2B cells; assay type: cell-based; conditions: Homo sapiens; inhibition of TGF-β stimulated pSMAD3 formation, BEAS-2B cells; read-out: BEAS2B pIC50 (converted)
In short: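 Potency is reported as pIC50, derived from concentration-dependent reduction of pSMAD3 AlphaLISA signal against TGF-β-stimulated cells without compound. BEAS-2B cells received compound for 1 h before a 30-min stimulation with 10 ng/mL TGF-β.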

[2] = biological target: T1, recombinant human ALK5 (TGF-βR1) protein (Homo sapiens, UniProt P36897); assay: Biochemical ALK5 (TGF-βR1) assay to measure pKi (LANCE Ultra ULight kinase assay); conditions: apparent pKi from pIC50 by Cheng-Prusoff, read-out: ALK5 pKi (converted)
T1 construct: purchased Life Technologies PR9075A
T1 sequence (P36897 34-503): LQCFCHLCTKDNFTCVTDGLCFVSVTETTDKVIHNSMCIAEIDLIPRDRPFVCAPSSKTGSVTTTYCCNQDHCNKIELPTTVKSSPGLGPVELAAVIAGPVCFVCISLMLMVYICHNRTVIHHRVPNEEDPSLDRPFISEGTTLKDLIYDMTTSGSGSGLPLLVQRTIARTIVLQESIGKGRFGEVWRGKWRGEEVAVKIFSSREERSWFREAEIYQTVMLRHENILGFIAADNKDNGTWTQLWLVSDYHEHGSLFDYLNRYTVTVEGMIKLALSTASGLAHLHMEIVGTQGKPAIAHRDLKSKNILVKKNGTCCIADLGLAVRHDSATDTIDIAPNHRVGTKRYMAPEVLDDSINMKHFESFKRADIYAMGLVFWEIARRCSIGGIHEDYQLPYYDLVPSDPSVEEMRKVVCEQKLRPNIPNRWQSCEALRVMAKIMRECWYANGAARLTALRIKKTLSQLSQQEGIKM
In short: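 After a 60 min room-temperature preincubation of ALK5 with compound, phosphorylation proceeds 60 min at 37 °C on ATP addition (125 μM as 5× stock). Detection: Eu-labelled phospho-Thr1342 Topo IIα antibody in EDTA buffer, pH 7.0; emission 665 nm.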

SMILES | Ki [2] [nM] | IC50 [1] [nM]
Cc1cccc(-c2n[nH]cc2-c2ccc3ncc(-c4nnn5c4NCC5)cc3n2)n1 [Compound 5, 7-(5,6-dihydro-4H-imidazo[1,2-c]triazol-3-yl)-2-[3-(6-methyl-2-pyridyl)-1H-pyrazol-4-yl]-1,5-naphthyridine] | < 0.0316 | 25.1 to 158
Cc1nc(-c2n[nH]cc2-c2ccc3ncc(-c4[nH]nc5c4CCNC5)cc3n2)ccc1F [Compound 7, 2-[3-(5-fluoro-6-methyl-2-pyridyl)-1H-pyrazol-4-yl]-7-(4,5,6,7-tetrahydro-2H-pyrazolo[3,4-c]pyridin-3-yl)-1,5-naphthyridine] | 0.0398 to 0.316 | 200 to 1260
Cc1cccc(-c2n[nH]cc2-c2ccc3ncc(-c4ccnc(C#N)c4)cc3n2)n1 [Compound 9, 4-[6-[3-(6-methyl-2-pyridyl)-1H-pyrazol-4-yl]-1,5-naphthyridin-3-yl]pyridine-2-carbonitrile] | < 0.0316 | < 20
Cc1cccc(-c2n[nH]cc2-c2ccc3ncc(N4CCC5(CCNC5)C4)cc3n2)n1 (stereo not drawn) [Compound 10, 7-(2,7-diazaspiro[4.4]nonan-2-yl)-2-[3-(6-methyl-2-pyridyl)-1H-pyrazol-4-yl]-1,5-naphthyridine] | 0.0398 to 0.316 | 200 to 1260
Cc1cccc(-c2n[nH]cc2-c2ccc3ncc(-c4cccn(C)c4=O)cc3n2)n1 [Compound 12, 1-methyl-3-[6-[3-(6-methyl-2-pyridyl)-1H-pyrazol-4-yl]-1,5-naphthyridin-3-yl]pyridin-2-one] | < 0.0316 | < 20
Cc1cccc(-c2n[nH]cc2-c2ccc3ncc(C4=CCNCC4)cc3n2)n1 [Compound 15, 2-[3-(6-methyl-2-pyridyl)-1H-pyrazol-4-yl]-7-(1,2,3,6-tetrahydropyridin-4-yl)-1,5-naphthyridine] | < 0.0316 | < 20
CNCCN(C)C1CCN(c2cnc3ccc(-c4c[nH]nc4-c4cccc(C)n4)nc3c2)CC1 [Compound 18, N,N′-dimethyl-N′-[1-[6-[3-(6-methyl-2-pyridyl)-1H-pyrazol-4-yl]-1,5-naphthyridin-3-yl]-4-piperidyl]ethane-1,2-diamine] | 0.0398 to 0.316 | 200 to 1260
Cc1cccc(-c2n[nH]cc2-c2ccc3ncc(N4CCN(C(C)C)C(C)(C)C4)cc3n2)n1 [Compound 20, 7-(4-isopropyl-3,3-dimethyl-piperazin-1-yl)-2-[3-(6-methyl-2-pyridyl)-1H-pyrazol-4-yl]-1,5-naphthyridine] | 3.98 to 31.6 | 200 to 1260
Cc1cccc(-c2n[nH]cc2-c2ccc3ncc(C4=CCC(N)CC4)cc3n2)n1 (stereo not drawn) [Compound 21, 4-[6-[3-(6-methyl-2-pyridyl)-1H-pyrazol-4-yl]-1,5-naphthyridin-3-yl]cyclohex-3-en-1-amine] | < 0.0316 | 25.1 to 158
Cc1cccc(-c2n[nH]cc2-c2ccc3ncc(N4CCCCC4)cc3n2)n1 [Compound 22, 2-[3-(6-methyl-2-pyridyl)-1H-pyrazol-4-yl]-7-(1-piperidyl)-1,5-naphthyridine] | 0.0398 to 0.316 | 25.1 to 158
Cc1cccc(-c2nc3ccccn3c2-c2ccc3ncc(-c4cnc5n4CCN5)cc3n2)n1 [Compound 23, 7-(6,7-dihydro-5H-imidazo[1,2-a]imidazol-3-yl)-2-[2-(6-methyl-2-pyridyl)imidazo[1,2-a]pyridin-3-yl]-1,5-naphthyridine] | < 0.0316 | 25.1 to 158
Cc1cccc(-c2nnn(Cc3ccccc3)c2-c2ccc3ncc(-c4cnn(C5CCCNC5)c4)cc3c2)n1 (stereo not drawn) [Compound 27, 6-[3-benzyl-5-(6-methyl-2-pyridyl)triazol-4-yl]-3-[1-(3-piperidyl)pyrazol-4-yl]quinoline] | 0.0398 to 0.316 | 25.1 to 158
Cc1cccc(-c2n[nH]cc2-c2ccc3ncc(N4CC(C)NC(C)C4)cc3n2)n1 (stereo not drawn) [Compound 28, 7-(3,5-dimethylpiperazin-1-yl)-2-[3-(6-methyl-2-pyridyl)-1H-pyrazol-4-yl]-1,5-naphthyridine] | < 0.0316 | 25.1 to 158

Further lines, with some results ahead:

Ki [2] [nM] | SMILES | IC50 [1] [nM]
0.0398 to 0.316 | Cc1cccc(-c2[nH]cnc2-c2ccc3ncc(NC(=O)C4CC(N)C4)cc3c2)n1 (stereo not drawn) [Compound 3, 3-amino-N-[6-[5-(6-methyl-2-pyridyl)-1H-imidazol-4-yl]-3-quinolyl]cyclobutanecarboxamide] | 200 to 1260
0.0398 to 0.316 | Cc1cccc(-c2[nH]cnc2-c2ccc3ncc(N(C)CC4CNC4)cc3c2)n1 [Compound 6, N-(azetidin-3-ylmethyl)-N-methyl-6-[5-(6-methyl-2-pyridyl)-1H-imidazol-4-yl]quinolin-3-amine] | 25.1 to 158
0.0398 to 0.316 | Cc1cccc(-c2[nH]cnc2-c2ccc3ncc(C4=C[C@@H](C)N[C@H](C)C4)cc3c2)n1 [Compound 8, 3-[(2R,6R)-2,6-dimethyl-1,2,3,6-tetrahydropyridin-4-yl]-6-[5-(6-methyl-2-pyridyl)-1H-imidazol-4-yl]quinoline] | 25.1 to 158
0.0398 to 0.316 | Cc1cccc(-c2[nH]cnc2-c2ccc3ncc(NCC4CNC4)cc3c2)n1 [Compound 11, N-(azetidin-3-ylmethyl)-6-[5-(6-methyl-2-pyridyl)-1H-imidazol-4-yl]quinolin-3-amine] | 25.1 to 158
0.0398 to 0.316 | Cc1cccc(-c2[nH]cnc2-c2ccc3ncc(N4CC[C@@H](N)C4)cc3c2)n1 [Compound 13, (3R)-1-[6-[5-(6-methyl-2-pyridyl)-1H-imidazol-4-yl]-3-quinolyl]pyrrolidin-3-amine] | < 20
0.0398 to 0.316 | Cc1cccc(-c2[nH]cnc2-c2ccc3ncc(NC4CCC5(CC4)CNC5)cc3c2)n1 [Compound 14, N-(2-azaspiro[3.5]nonan-7-yl)-6-[5-(6-methyl-2-pyridyl)-1H-imidazol-4-yl]quinolin-3-amine] | 200 to 1260
< 0.0316 | Cc1cccc(-c2[nH]cnc2-c2ccc3ncc(C4=CCN(C)C4)cc3c2)n1 [Compound 16, 3-(1-methyl-2,5-dihydropyrrol-3-yl)-6-[5-(6-methyl-2-pyridyl)-1H-imidazol-4-yl]quinoline] | < 20
< 0.0316 | CNCCn1cc(-c2cnc3ccc(-c4nc[nH]c4-c4cccc(C)n4)cc3c2)cn1 [Compound 17, N-methyl-2-(4-(6-(5-(6-methylpyridin-2-yl)-1H-imidazol-4-yl)quinolin-3-yl)-1H-pyrazol-1-yl)ethan-1-amine] | 25.1 to 158
0.0398 to 0.316 | Cc1cccc(-c2[nH]cnc2-c2ccc3ncc(N4CCNC(CC(=O)OC(C)C)C4)cc3c2)n1 (stereo not drawn) [Compound 24, isopropyl 2-[4-[6-[5-(6-methyl-2-pyridyl)-1H-imidazol-4-yl]-3-quinolyl]piperazin-2-yl]acetate] | 25.1 to 158
< 0.0316 | CC(=O)NC1CC=C(c2cnc3ccc(-c4nc[nH]c4-c4cccc(C)n4)cc3c2)CC1 (stereo not drawn) [Compound 26, N-[4-[6-[5-(6-methyl-2-pyridyl)-1H-imidazol-4-yl]-3-quinolyl]cyclohex-3-en-1-yl]acetamide] | < 20
< 0.0316 | CNCCn1cc(-c2cnc3ccc(-c4nn[nH]c4-c4cccc(C)n4)nc3c2)cn1 [Compound 29, N-methyl-2-(4-(6-(5-(6-methylpyridin-2-yl)-1H-1,2,3-triazol-4-yl)-1,5-naphthyridin-3-yl)-1H-pyrazol-1-yl)ethan-1-amine] | 200 to 1260
